According to US20140341916A1, “THERAPEUTIC COMBINATIONS AND METHODS OF TREATING MELANOMA” (Genentech, Inc., priority 2011, published 2014):

What was measured:
Assay type in all cases: cell-based, human
phosphor-ERK = assay: Phospho-ERK in melanoma cells, Western blot; details: IPC-298 cells (BRAF wild-type, RAS Q61L), 24 h
Experimental: (§1) Melanoma cell lines UACC-257X2.2, A2058, COLO 829, IPC-298 (ATCC) were treated with a BRAF inhibitor drug (“BRAFi”), specifically RG7204 at varying concentrations by adding the appropriate drug volume to cells in culture for 24 h on four-well dishes.
(§2) To test whether the increase in ETBR transcripts due to BRAFi treatment also results in any changes in ETBR total protein levels, Western blot experiments were performed on the same cell lines treated with BRAFi RG7204 as described above. For Western blotting, the following reagents were used: for detection of proteins: an anti-ETBR in-house generated monoclonal antibody 1H1.8.5, anti-Phospho-p44/42 MAPK (Erk1/2) (Thr202/Tyr204) antibody (9101, Cell Signaling Technology), anti-p44/42 MAPK (Erk1/2) antibody (9102, Cell Signaling Technology) and as controls, a rabbit polyclonal anti-GAPDH (glyceraldehyde-3-phosphate dehydrogenase) antibody (PA1-987; Affinity Bioreagents) and mouse monoclonal anti-β-Tubulin antibody (556321, BD Pharmingen). The results for UACC-257X2.2 are shown in FIG. 4B, the results for A2058 are shown in FIG. 8B, the results for COLO 829 are shown in FIG. 6B and the results for IPC-298 are shown in FIG. 10.

ETBR total protein = ETBR total protein in melanoma cell lines, Western blot; details: 24 h
Experimental: as §1, §2
(§3) Melanoma cell lines A2058, COLO 829, SK23-MEL and IPC-298 (ATCC) were treated with a MEK inhibitor drug (“MEKi-973” or “MEKi-623”), at varying concentrations (0 μM, 0.01 μM, 0.1 μM or 1 μM) by adding the appropriate drug volume to cells in culture for 24 h on four-well dishes.
To test whether the increase in ETBR transcripts due to MEKi treatment also results in any changes in ETBR total protein levels, Western blot experiments were performed on cell lines COLO829 (BRAF^V600E), A2058 (BRAF^V600E), SK23-MEL (BRAF^WT/RAS^WT), or IPC-298 (BRAF^WT/RAS^[…]) which were treated with MEKi-973 as described above. For Western blotting, the following reagents were used: for detection of proteins: an anti-ETBR in-house generated monoclonal antibody 1H1.8.5, anti-Phospho-p44/42 MAPK (Erk1/2) (Thr202/Tyr204) antibody (9101, Cell Signaling Technology), anti-p44/42 MAPK (Erk1/2) antibody (9102, Cell Signaling Technology) and as controls, a rabbit polyclonal anti-GAPDH (glyceraldehyde-3-phosphate dehydrogenase) antibody (PA1-987; Affinity Bioreagents) and mouse monoclonal anti-β-Tubulin antibody (556321, BD Pharmingen). The results for A2058 are shown in FIG. 15A treated with MEKi-623 and 15B treated with MEKi-973, the results for COLO 829 are shown in FIG. 12A treated with MEKi-623 and 12B treated with MEKi-973, the results for SK23-MEL are shown in FIG. 19A treated with MEKi-623 and 19B treated with MEKi-973, and the results for IPC-298 are shown in FIG. 22A treated with MEKi-623 and 22B treated with MEKi-973.

ETBR surface protein = assay: Surface ETBR protein in live melanoma cells, FACS; details: 24 h
Experimental: as §1
(§4) To determine whether the observed increases in total ETBR protein level due to BRAFi treatment also results in an increase of ETBR surface protein levels, a fluorescence-activated cell sorting (FACS) analysis was performed. Cells were harvested in PBS with 2.5 mmol/L EDTA and washed in PBS buffer containing 1% FBS. All subsequent steps were carried out at 4° C. Cells were incubated for 1 hour with 3 μg/mL anti ETBR antibody Hu5E9v1, followed by anti-human IgG fluorescent detection reagent (A11013; Invitrogen). Cells were then analyzed with a FACS Calibur flow cytometer (BD Biosciences). The results for UACC-257X2.2 are shown in FIG. 4C, the results for A2058 are shown in FIG. 8C, and the results for COLO 829 are shown in FIG. 6C.
as §3
as §4, with “MEKi” for “BRAFi”, “performed as described above.” for “performed.”, “Biosciences).” for “Biosciences). The results for UACC-257X2.2 are shown in FIG. 4C, the results for A2058 are shown in FIG. 8C, and the results for COLO 829 are shown in FIG. 6C.”

## CCCS(=O)(=O)Nc1ccc(F)c(C(=O)c2c[nH]c3ncc(-c4ccc(Cl)cc4)cc23)c1F [RG7204, propane-1-sulfonic acid {3-[5-(4-chlorophenyl)-1H-pyrrolo[2,3-b]pyridine-3-carbonyl]-2,4-difluoro-phenyl}-amide]
phosphor-ERK
  phosphor-ERK level: appears to activate the levels of phosphor-ERK
ETBR total protein; A2058 cells (BRAF V600E)
  ETBR total protein level vs untreated control cells: appears to increase the ETBR total protein levels
ETBR total protein; COLO 829 cells (BRAF V600E)
  ETBR total protein level vs untreated control cells: appears to increase the ETBR total protein levels
ETBR total protein; IPC-298 cells (BRAF wild-type, RAS mutant)
  ETBR total protein level vs untreated control cells: does not appear to increase ETBR levels
ETBR total protein; UACC-257X2.2 cells
  ETBR total protein level vs untreated control cells: appears to increase the ETBR total protein levels
ETBR surface protein; A2058 cells
  surface level of ETBR protein vs untreated control cells: appears to increase the surface levels of ETBR protein
ETBR surface protein; COLO 829 cells
  surface level of ETBR protein vs untreated control cells: appears to increase the surface levels of ETBR protein
ETBR surface protein; IPC-298 cells
  surface level of ETBR protein vs untreated control cells: appears to reduce ETBR levels
ETBR surface protein; UACC-257X2.2 cells
  surface level of ETBR protein vs untreated control cells: appears to increase the surface levels of ETBR protein
